Assay results reported in patent publication US20030203373A1 (priority 2002, published 2003).
Several values for one entry are separate records, joined by “and”; a condition that tells them apart may be missing. Equal values may be shown once.

Target: T1, ACE from pig kidney (Sus scrofa, UniProt F1RRW5)
T1 construct: 1 mU ACE from pig kidney (EC 3.4.15.1 (Sigma)); purchased Sigma; host or cells: pig kidney (tissue-derived enzyme)
T1 sequence (F1RRW5 34-1309): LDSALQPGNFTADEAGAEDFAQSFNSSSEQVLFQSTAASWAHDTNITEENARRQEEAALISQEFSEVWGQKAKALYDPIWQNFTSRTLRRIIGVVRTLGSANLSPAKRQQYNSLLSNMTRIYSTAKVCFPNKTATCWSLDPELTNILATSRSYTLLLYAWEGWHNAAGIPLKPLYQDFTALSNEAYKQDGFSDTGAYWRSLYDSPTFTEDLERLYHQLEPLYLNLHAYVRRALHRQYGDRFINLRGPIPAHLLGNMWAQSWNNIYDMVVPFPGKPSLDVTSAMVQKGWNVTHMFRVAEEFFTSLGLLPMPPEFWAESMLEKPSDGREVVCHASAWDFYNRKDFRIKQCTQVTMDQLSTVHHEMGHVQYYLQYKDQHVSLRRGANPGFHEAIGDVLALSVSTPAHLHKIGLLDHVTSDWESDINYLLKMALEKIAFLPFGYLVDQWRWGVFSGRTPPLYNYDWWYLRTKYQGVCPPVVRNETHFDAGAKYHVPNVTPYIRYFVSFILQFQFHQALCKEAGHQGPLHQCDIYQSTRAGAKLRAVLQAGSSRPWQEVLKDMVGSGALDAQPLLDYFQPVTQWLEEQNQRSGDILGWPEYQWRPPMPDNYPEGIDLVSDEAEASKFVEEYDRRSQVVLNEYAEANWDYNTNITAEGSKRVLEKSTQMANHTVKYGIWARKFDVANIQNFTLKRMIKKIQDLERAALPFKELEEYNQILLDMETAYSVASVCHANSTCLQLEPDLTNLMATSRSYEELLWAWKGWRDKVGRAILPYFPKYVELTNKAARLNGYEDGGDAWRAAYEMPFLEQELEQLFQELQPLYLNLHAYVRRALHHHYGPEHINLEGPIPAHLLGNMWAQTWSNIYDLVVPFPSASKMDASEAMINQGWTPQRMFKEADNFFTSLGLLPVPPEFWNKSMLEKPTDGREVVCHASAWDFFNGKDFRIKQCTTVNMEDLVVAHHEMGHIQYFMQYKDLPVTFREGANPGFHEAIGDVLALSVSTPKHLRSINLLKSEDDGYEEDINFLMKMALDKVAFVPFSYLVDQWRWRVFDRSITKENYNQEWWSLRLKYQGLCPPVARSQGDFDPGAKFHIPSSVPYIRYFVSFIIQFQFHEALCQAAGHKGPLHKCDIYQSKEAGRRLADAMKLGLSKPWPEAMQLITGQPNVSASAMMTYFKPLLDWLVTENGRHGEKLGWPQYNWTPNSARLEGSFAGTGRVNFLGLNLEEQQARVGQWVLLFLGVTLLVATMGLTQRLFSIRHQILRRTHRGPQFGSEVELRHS
Experiment: biochemical
Format: biochemical
Procedure, shortened: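 Pig kidney ACE (1 mU) in 25 mM HEPES, 0,3 M NaCl, pH 8,2 was mixed with inhibitor solutions (0,35-200 μM) and started with 2 mM hippuryl-histidyl-leucine solution. After 30 min at 22° C the reaction was stopped with NaOH and the product derivatized with ortho-phthalaldehyde for fluorescence. IC50 was read graphically from % inhibition curves.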

[1] = inhibitor 0.78125 μM, replicates A-D
[2] = inhibitor 1.5625 μM, replicates A-D
[3] = inhibitor 3.125 μM, replicates A-D
[4] = inhibitor 6.25 μM, replicates A-D
[5] = inhibitor 12.5 μM, replicates A-D
[6] = inhibitor 25 μM, replicates A-D
[7] = inhibitor 50 μM, replicates A-D
[8] = inhibitor 100 μM, replicates A-D
[9] = inhibitor 200 μM, replicates A-D

CC(C)C[C@H](NC(=O)[C@H](C)N)C(=O)N[C@@H](CO)C(=O)N1CCC[C@H]1C(=O)N[C@@H](CC(C)C)C(=O)N1CCC[C@H]1C(=O)N[C@@H](CCC(=O)O)C(=O)N[C@H](C(=O)N1CCC[C@H]1C(=O)N1CCC[C@H]1C(=O)O)C(C)C [Peptide S545]
IC50 (ACE from pig kidney, determined graphically, read-out: IC50-value (ACE inhibition)): 2400 nM
fluorescence reading (ACE Inhibitor Assay) (inhibitor 0.39 μM, replicates A-D): 811412 and 841911 and 876502 and 774338
% inhibition (ACE Inhibitor Assay) (inhibitor 0.39 μM, replicates A-D, 0.39 µM): 12.66% and 9.36% and 5.61% and 16.67%
fluorescence reading (ACE Inhibitor Assay) [1]: 726277 and 720995 and 719037 and 692816
inhibition at 0.78125 µM [1]: 21.9%
% inhibition (ACE Inhibitor Assay) (inhibitor 0.78125 μM, replicates A-D, 0.78125 µM): 22.45% and 22.66% and 25.5%
fluorescence reading (ACE Inhibitor Assay) [2]: 541353 and 551184 and 577933 and 551569
inhibition at 1.5625 µM [2]: 41.9%
% inhibition (ACE Inhibitor Assay) (inhibitor 1.5625 μM, replicates A-D, 1.5625 µM): 40.85% and 37.95% and 40.8%
fluorescence reading (ACE Inhibitor Assay) [3]: 405396 and 408086 and 447790 and 392263
inhibition at 3.125 µM [3]: 56.6%
% inhibition (ACE Inhibitor Assay) (inhibitor 3.125 μM, replicates A-D, 3.125 µM): 56.36% and 52.05% and 58.06%
fluorescence reading (ACE Inhibitor Assay) [4]: 251538 and 279216 and 263340 and 250076
inhibition at 6.25 µM [4]: 73.3%
% inhibition (ACE Inhibitor Assay) (inhibitor 6.25 μM, replicates A-D, 6.25 µM): 70.3% and 72.02% and 73.46%
fluorescence reading (ACE Inhibitor Assay) [5]: 174037 and 177324 and 175378 and 177772
inhibition at 12.5 µM [5]: 81.7%
% inhibition (ACE Inhibitor Assay) (inhibitor 12.5 μM, replicates A-D, 12.5 µM): 81.34% and 81.55% and 81.29%
fluorescence reading (ACE Inhibitor Assay) [6]: 108586 and 113328 and 113458 and 104078
inhibition at 25 µM [6]: 88.8%
% inhibition (ACE Inhibitor Assay) (inhibitor 25 μM, replicates A-D, 25 µM): 88.27% and 88.26% and 89.27%
fluorescence reading (ACE Inhibitor Assay) [7]: 53158 and 63009 and 54447 and 48696
inhibition at 50 µM [7]: 94.8%
% inhibition (ACE Inhibitor Assay) (inhibitor 50 μM, replicates A-D, 50 µM): 93.72% and 94.65% and 95.27%
fluorescence reading (ACE Inhibitor Assay) [8]: 28035 and 29130 and 30237 and 28568
inhibition at 100 µM [8]: 97.5%
% inhibition (ACE Inhibitor Assay) (inhibitor 100 μM, replicates A-D, 100 µM): 97.39% and 97.27% and 97.45%
fluorescence reading (ACE Inhibitor Assay) [9]: 17677 and 17238 and 18084 and 18937
inhibition at 200 µM [9]: 98.6%
% inhibition (ACE Inhibitor Assay) (inhibitor 200 μM, replicates A-D, 200 µM): 98.68% and 98.59% and 98.5%
fold higher dose necessary in the ACE-assay to reach the same effect as with Captopril (relative to Captopril): 1000 fold
